Assay results: article PMC12154426, “TPP-Based Nanovesicles Kill MDR Neuroblastoma Cells and Induce Moderate ROS Increase, While Exerting Low Toxicity Towards Primary Cell Cultures: An In Vitro Study” (International Journal of Molecular Sciences, 2025)
Where “and” joins values, the source holds several entries; their conditions need not be identical. Equal values may be shown once.

Tests used:
spinal cord astrocytes = assay: MTT cytotoxicity assay on spinal cord astrocyte primary cell cultures; type: cell-based, C57BL/6J mice; details: for IC50: 0.12–11.73 µM
Description: Similarly to the assessment of haemolytic toxicity, the evaluation of cytotoxicity towards mammalian cells is another pivotal step to afford in the early stage of drug development, before undertaking other costly and time-consuming in vivo experiments. […] The cytotoxicity of quaternary phosphonium salts (QPSs) depends mainly on their physicochemical characteristics, including the number of carbon atoms of alkyl chains, the presence of aromatic ring(s) on which the P^+ cationic charge can delocalize, the type of counter anions, the possible colloidal properties, and the probable capability to form nano aggregates. The specific types of cells exposed to QPSs can further influence their cytotoxicity. In this regard, the constituents of membranes of cancer cells are different from those of mammalian cells. This makes them more susceptible to the disruptive action of cationic compounds, thus making QPSs’ possible cytotoxicity towards tumour cells higher than towards normal ones. Anyway, a certain cytotoxicity could manifest also in normal cells and quantifying it is mandatory. Based on these considerations, although NB is a neuroendocrine tumour which derives from neural crest cells, we investigated the BPPB toxic effects on primary cell cultures, namely spinal cord astrocytes and cortical neurons. Astrocyte primary cultures have emerged as an important tool for understanding the responses of normal cells under both physiological and pathological conditions. On the other hand, primary neuronal cell cultures are best suited for drug discovery and drug development. Primary cell cultures freshly prepared from animals reproduce physiological conditions astonishingly like the in vivo situation. As for our knowledge, it is the first time that the cytotoxicity of a bola amphiphilic compound is assessed on primary cultures of astrocytes and neurons. More generically, the existent studies on the cytotoxicity of synthetic QPSs, or of a generic exogenous synthetic cationic organic compound or polymer on astrocytes and neurons primary cell cultures, are limited. As examples, upon a rapid survey, we have found a study on the mechanism by which amine-modified cationic polystyrene nanoparticles induced cell death in a human brain astrocytoma cell line, but not in primary astrocytes. A study on the mechanism by which endogenous eosinophil cationic protein/RNase 3 induced cell death in primary astrocytes was found, but exogenous synthetic cationic compounds were not considered. Concerning primary neurons, the cytotoxicity of both a commercial (LA2000) and a newly prepared cationic lipid (Arg (TFA^−)) vs. primary neurons was assessed by Aoshima et al.. The cytotoxicity of a library of 80 compounds, among which only 2/3 molecules were cationic salts, was evaluated in human-induced pluripotent stem cell (iPSC)-derived neural stem cells, neurons, and astrocytes by Pei et al.. Vidal et al. assessed the neurotoxicity of a cationic fourth generation (G4) amine dendrimer (G4-NH2) towards primary neuron cell cultures. […] Cell viability in neurons and astrocytes, treated with increasing concentrations of BPPB for 24, 48, and 72 h, was assessed using the MTT essay, which is a method endowed with simplicity, convenience, quantitative and high throughput, as well as reproducibility. MTT is a well-established method for assessing cell viability, and its reliability is supported by standardized protocols in many areas of research.
Astrocytes were prepared from the spinal cord of neonatal 2-day-old C57BL/6J mice as previously described, with minor modifications. Briefly, two days after birth, pups (P1-2) were euthanized by cervical dislocation by trained personnel, and spinal cords were rapidly removed. […]

HTLA 230 = assay: DCFH assay of ROS (H2O2) production, HTLA 230; type: cell-based, human; details: for highest value of DCFH-positive cells: normalized for protein content, control = 1
Description: It has been reported that the administration of TPP-based compounds, including TPP-based bola amphiphilic nanovesicles such as BPPB, induce ROS overproduction, thus causing oxidative stress (OS), which has been widely reported to be involved in the anticancer effect of several chemotherapeutic drugs, including etoposide, doxorubicin [38], and cisplatin [39]. […] On the contrary, the role of ROS was scarcely present in PLX-resistant CMM cells exposed to the same concentrations of BPPB [13]. With these considerations, we evaluated ROS levels also in NB cells treated with BPPB, since this experiment would have been particularly helpful to understand whether (i) these nanovesicles’ preparation exerts its cytotoxic action on HTLA 230 and ER cells through ROS production, as in PLX-sensitive CMM cells; or (ii) the resistance acquired by HTLA ER based on high levels of antioxidants, following chronic treatment with etoposide, conferred resistance also to a preparation based on the use of nanovesicles (BPPBs). Moreover, the evaluation of ROS levels can be an indirect method to ascertain and confirm the presence of apoptosis, since as reported, low levels of ROS induce apoptosis and high levels induce necrosis.Therefore, to investigate the pro-oxidant action of BPPB also in HTLA 230 and HTLA ER NB cells, ROS levels were evaluated in both NB cell populations exposed for 24–72 h to increasing concentrations (0.1–2 µM) of BPPB using the DCFH essay (Figure 4). The results were reported as a percentage of cells positive to DCFH normalized for protein content. Raw fluorescence data are, in fact, not applicable since an increase in fluorescence could be due to a high number of cells but also to an increased production of H2O2 induced by the treatments. This is the reason why it is necessary to normalize the fluorescence data to the protein content. Other cellular assays measuring oxidative damage, including lipid peroxidation or protein carbonylation, are likely too complex for low-tier early hazard assessment or hazard screening. Conversely, the cellular DCFH assay is a simpler and widely used alternative, which measures intracellular ROS production by forming a fluorescent product (DCF) upon oxidation by free radicals produced by cells.
The production of H2O2 was evaluated using 2′-7′-dichlorofluorescein-diacetate (DCFH-DA; Merk Life Science S.r.l. Milan, Italy), as previously reported. Briefly, NB cells (10^4 cells/well) were seeded in 96-well plates (Corning) and treated. Then, cells were stained with 2′-7′ di-chloro-fluorescein-diacetate (DCFH-DA; Sigma-Aldrich) and incubated with 90% DMSO for an additional 10 min in the dark. The generated fluorescence intensity was monitored with a Perkin Elmer fluorometer (Perkin Elmer Life and Analytical Sciences, Shelton, WA, USA) at 485/530 nm excitation/emission. Values were normalized to the protein content.

SMILES: c1ccc([P+](CCCCCCCCCCCC[P+](c2ccccc2)(c2ccccc2)c2ccccc2)(c2ccccc2)c2ccccc2)cc1 [BPPB, 1,1-(1,12-dodecanediyl)-bis-[1,1,1]-triphenyl phosphonium di-bromide]
- cell viability (spinal cord astrocytes; 1.17 µM, 48 h): 72.17%
- cell viability (spinal cord astrocytes; 1.17 µM, 72 h): 69.31%
- cell viability (spinal cord astrocytes; 2.93 µM, 24 h): 74.95%
- cell viability (spinal cord astrocytes; 8.80 µM, 24 h): 47.14%
- cell viability (spinal cord astrocytes; 8.80 µM, 72 h): 42.70%
- cell viability (spinal cord astrocytes; 11.73 µM, 24 h): 20.22%
- cell viability (spinal cord astrocytes; 11.73 µM, 48 h): 45.18%
- IC50 (spinal cord astrocytes; 24 h exposure): ~7.04 µM and 7.04 µM
- IC50 (spinal cord astrocytes; 48 h exposure): 11 ± 5.09 µM
- IC50 (spinal cord astrocytes; 72 h exposure): 5.09 ± 1.22 µM
- SI values with respect to primary spinal cord astrocytes (spinal cord astrocytes; HTLA 230 and HTLA ER, all exposure timings): 4.25–23.73
- selectivity index values (spinal cord astrocytes; NB cells with respect to neurons and astrocytes, maximum): up to 23.7
- SI 24 h (spinal cord astrocytes; Spinal cord astrocytes vs. HTLA 230, 24 h): 7.61
- SI 48 h (spinal cord astrocytes; Spinal cord astrocytes vs. HTLA 230, 48 h): 23.73
- SI 72 h (spinal cord astrocytes; Spinal cord astrocytes vs. HTLA 230, 72 h): 13.09
- SI 24 h (spinal cord astrocytes; Spinal cord astrocytes vs. HTLA ER, 24 h): 5.69
- SI 48 h (spinal cord astrocytes; Spinal cord astrocytes vs. HTLA ER, 48 h): 8.10
- SI 72 h (spinal cord astrocytes; Spinal cord astrocytes vs. HTLA ER, 72 h): 4.25
- concentration giving significant increase in ROS levels (HTLA 230; 24 h): ≥ 0.5 µM
- highest value of DCFH-positive cells (HTLA 230; 24 h): 2.96
- increase in ROS with respect to the control (HTLA 230; 24 h exposure): > 3 times
- average ROS production in HTLA 230 higher than in HTLA ER (HTLA 230; 48 h): 1.3 times
- concentration giving significant increase in ROS levels (HTLA 230; 48 h): ≥ 0.5 µM
- highest value of DCFH-positive cells (HTLA 230; 48 h): 3.05
- average ROS production in HTLA 230 higher than in HTLA ER (HTLA 230; 72 h): 1.4 times
- concentration giving significant increase in ROS levels (HTLA 230; 72 h): ≥ 0.25 µM
- highest value of DCFH-positive cells (HTLA 230; 72 h, highest doses): 5.8
- more efficient in inducing ROS overproduction than TiO2-Ta nanoparticles (HTLA 230; HTLA 230 and HTLA ER, 24 h): 9.4–23.4 fold
